ChEMBL document CHEMBL4689842, “EUbOPEN Chemogenomics Library wave 1” (2021)

Experiments:
Type in all cases: toxicity, cell-based
[1] = tested on: HEK-293T; experiment: Incucyte cell viability with HEK293T; conditions: human, 10 µM, compound concentration 10 uM
[2] = tested on: U2OS; experiment: Incucyte cell viability with U2OS; conditions: human, 10 µM, compound concentration 10 uM
[3] = tested on: Fibroblast; experiment: Incucyte cell viability with human fibroblast; conditions: 10 µM, compound concentration 10 uM
[4] = 0 h, replicate number 1, timepoint 0 hours
[5] = 0 h, replicate number 2, timepoint 0 hours
[6] = 24 h, replicate number 2, timepoint 24 hours
[7] = 6 h, replicate number 1, timepoint 6 hours
[8] = 6 h, replicate number 2, timepoint 6 hours
[9] = 12 h, replicate number 1, timepoint 12 hours
[10] = 12 h, replicate number 2, timepoint 12 hours
[11] = 18 h, replicate number 1, timepoint 18 hours
[12] = 18 h, replicate number 2, timepoint 18 hours
[13] = 24 h, replicate number 1, timepoint 24 hours
Note: filed as whole numbers so only -1 and 0 and 1 occur.

CN1CCN(c2cnc3c(C4CCN(C(=O)c5ccc(OC(F)(F)F)cc5N)CC4)ncnc3c2)CC1 [BAY-885]
Growth Rate [1, 4]: 0
Growth Rate [1, 5]: 1
Growth Rate [1, 6]: 1
Growth Rate [2, 4]: 0
Growth Rate [2, 7]: 0
Growth Rate [2, 8]: 1
Growth Rate [2, 9]: 0
Growth Rate [2, 10]: 1
Growth Rate [2, 11]: 0
Growth Rate [2, 12]: 1
Growth Rate [2, 13]: 0
Growth Rate [2, 6]: 1
Growth Rate [3, 4]: 1
Growth Rate [3, 5]: 0
Growth Rate [3, 7]: 0
Growth Rate [3, 9]: 1
Growth Rate [3, 11]: 0
Growth Rate [3, 12]: 1
Growth Rate [3, 13]: 0
Growth Rate [3, 6]: 1

C=C(c1ccc(C(=O)O)cc1)c1cc2c(cc1C)C(C)(C)CCC2(C)C [BEXAROTENE]
Growth Rate [1, 4]: 1
Growth Rate [1, 5]: 0
Growth Rate [1, 7]: 0
Growth Rate [1, 8]: 1
Growth Rate [1, 9]: 0
Growth Rate [1, 10]: 1
Growth Rate [1, 11]: 0
Growth Rate [1, 13]: 0
Growth Rate [2, 4]: 0
Growth Rate [2, 5]: -1
Growth Rate [2, 9]: 1
Growth Rate [2, 11]: 1
Growth Rate [2, 13]: 1
Growth Rate [3, 4]: 0
Growth Rate [3, 9]: 1
Growth Rate [3, 11]: 1
Growth Rate [3, 13]: 1

CS(=O)(=O)NCC[C@H](NC(=O)c1cncc2c1cnn2-c1ccc(F)cc1)c1ccnc(S(C)(=O)=O)c1 [BI 9307]
Growth Rate [1, 4]: 0
Growth Rate [1, 7]: 1
Growth Rate [1, 9]: 1
Growth Rate [1, 11]: 1
Growth Rate [1, 13]: 1
Growth Rate [2, 4]: 0
Growth Rate [2, 9]: 1
Growth Rate [2, 11]: 1
Growth Rate [2, 13]: 1
Growth Rate [3, 4]: 0
Growth Rate [3, 8]: 0
Growth Rate [3, 10]: 0
Growth Rate [3, 12]: 1
Growth Rate [3, 6]: 0

CC(=O)N1CCC(c2ccc(C(=O)NC(=N)N)cc2C(F)(F)F)CC1 [BI 9627]
Growth Rate [1, 4]: 0
Growth Rate [1, 8]: 1
Growth Rate [1, 9]: 1
Growth Rate [1, 11]: 1
Growth Rate [1, 13]: 1
Growth Rate [2, 5]: 0
Growth Rate [2, 7]: 1
Growth Rate [2, 9]: 1
Growth Rate [2, 11]: 1
Growth Rate [2, 13]: 1
Growth Rate [3, 4]: 0
Growth Rate [3, 5]: 1
Growth Rate [3, 7]: 1
Growth Rate [3, 8]: 0
Growth Rate [3, 9]: 0
Growth Rate [3, 11]: 1
Growth Rate [3, 12]: 0
Growth Rate [3, 13]: 0

COc1cc(N2CCC(N3CCN(C)CC3)CC2)ccc1Nc1ncc(Cl)c(Nc2ccccc2P(C)(C)=O)n1 [BRIGATINIB]
Growth Rate [1, 7]: 0
Growth Rate [1, 9]: 0
Growth Rate [1, 11]: 1
Growth Rate [1, 13]: 1
Growth Rate [1, 6]: 0
Growth Rate [2, 4]: 0
Growth Rate [2, 7]: 0
Growth Rate [2, 9]: 0
Growth Rate [2, 10]: 1
Growth Rate [2, 11]: 0
Growth Rate [2, 13]: 0
Growth Rate [3, 4]: 1
Growth Rate [3, 7]: 0
Growth Rate [3, 9]: 0
Growth Rate [3, 11]: 0
Growth Rate [3, 13]: 0

O=C1NC(c2ccccn2)Sc2ccccc21 (centres undefined) [BTZO-4]
Growth Rate [1, 4]: 1
Growth Rate [1, 7]: 0
Growth Rate [1, 9]: 0
Growth Rate [1, 11]: 0
Growth Rate [1, 12]: 1
Growth Rate [1, 13]: 1
Growth Rate [1, 6]: 0
Growth Rate [2, 4]: 0
Growth Rate [2, 7]: 0
Growth Rate [2, 9]: 0
Growth Rate [2, 10]: 1
Growth Rate [2, 11]: 0
Growth Rate [2, 12]: 1
Growth Rate [2, 13]: 0
Growth Rate [2, 6]: 1
Growth Rate [3, 4]: 0
Growth Rate [3, 7]: 1
Growth Rate [3, 9]: 1
Growth Rate [3, 11]: 1
Growth Rate [3, 13]: 0
Growth Rate [3, 6]: 1

O=C(NOCC1CC1)c1ccc(F)c(F)c1Nc1ccc(I)cc1Cl [CI-1040]
Growth Rate [1, 4]: 0
Growth Rate [1, 5]: 1
Growth Rate [1, 8]: 0
Growth Rate [1, 9]: 0
Growth Rate [1, 11]: 0
Growth Rate [1, 13]: 0
Growth Rate [2, 4]: 0
Growth Rate [2, 7]: 0
Growth Rate [2, 9]: 0
Growth Rate [2, 11]: 0
Growth Rate [2, 13]: 0
Growth Rate [3, 4]: 0
Growth Rate [3, 8]: 1
Growth Rate [3, 9]: 1
Growth Rate [3, 11]: 1
Growth Rate [3, 13]: 1

C#C[C@]1(O)CC[C@H]2[C@@H]3CCc4cc(O)ccc4[C@H]3CC[C@@]21C [ETHINYL ESTRADIOL]
Growth Rate [1, 4]: -1
Growth Rate [1, 5]: 0
Growth Rate [1, 6]: 1
Growth Rate [2, 5]: 0
Growth Rate [2, 7]: 0
Growth Rate [2, 8]: 1
Growth Rate [2, 9]: 0
Growth Rate [2, 11]: 0
Growth Rate [2, 13]: 0
Growth Rate [3, 7]: 0
Growth Rate [3, 9]: 0
Growth Rate [3, 11]: 0
Growth Rate [3, 13]: 0

CC(C)(C(=O)O)c1ccc(C(O)CCCN2CCC(C(O)(c3ccccc3)c3ccccc3)CC2)cc1.Cl (centres undefined) [FEXOFENADINE HYDROCHLORIDE]
Growth Rate [1, 4]: 1
Growth Rate [1, 5]: 0
Growth Rate [1, 7]: 1
Growth Rate [1, 9]: 1
Growth Rate [1, 11]: 1
Growth Rate [1, 13]: 1
Growth Rate [2, 5]: 0
Growth Rate [2, 8]: 0
Growth Rate [2, 9]: 1
Growth Rate [2, 11]: 1
Growth Rate [2, 12]: 0
Growth Rate [2, 13]: 1
Growth Rate [2, 6]: 0
Growth Rate [3, 4]: 0
Growth Rate [3, 5]: 1
Growth Rate [3, 7]: 0
Growth Rate [3, 9]: 0
Growth Rate [3, 10]: 1
Growth Rate [3, 11]: 0
Growth Rate [3, 12]: 1
Growth Rate [3, 13]: 0
Growth Rate [3, 6]: 1

O=C(Nc1nc2cccc(-c3ccc(CN4CCS(=O)(=O)CC4)cc3)n2n1)C1CC1 [FILGOTINIB]
Growth Rate [1, 4]: 0
Growth Rate [1, 7]: 0
Growth Rate [1, 9]: 0
Growth Rate [1, 11]: 0
Growth Rate [1, 13]: 0
Growth Rate [2, 4]: 1
Growth Rate [2, 7]: 1
Growth Rate [2, 8]: 0
Growth Rate [2, 9]: 0
Growth Rate [2, 11]: 0
Growth Rate [2, 13]: 0
Growth Rate [3, 4]: 0
Growth Rate [3, 7]: 1
Growth Rate [3, 8]: 0
Growth Rate [3, 9]: 0
Growth Rate [3, 11]: 0
Growth Rate [3, 13]: 0
